System: schizophrenia patients
Test: Genome-wide association study of iloperidone efficacy (PANSS-T) in a randomized, double-blind, placebo- and ziprasidone-controlled 28-day study
Type: in vivo, human
Details: for Genotype associated with lower treatment effect: PANSS-T
Description: A genome-wide association study (GWAS) is performed to improve understanding of the pharmacogenomic basis of response to iloperidone treatment of schizophrenia patients. In the GWAS, genotypes of 205 patients are utilized to evaluate treatment with iloperidone. Linear regression is used to directly test the association between single nucleotide polymorphisms (SNPs) and PANSS-T (day 28), correcting for essential covariates including principal components.
Patients 18-65 years of age with diagnoses of schizophrenia according to the Diagnostic and Statistical Manual of Mental Disorders, 4th Edition are eligible to participate in a randomized, double-blind, placebo- and ziprasidione-controlled, 28-day study of the efficacy and safety of iloperidone. Patients are randomly assigned to iloperidone 12 mg bid, ziprasidone 80 mg bid (active control), or placebo. The primary efficacy variable is change from baseline to the last scheduled observation in PANSS-T using the data from the short-term, double-blind phase. A secondary objective is to identify genetic markers predictive of response to iloperidone. Blood samples are collected, and DNA is extracted from patients who consented to the optional GWAS.
Three analyses of the PANSS-T are conducted: 1) A two-step approach where samples are randomly split into 2 groups of iloperidone-treated patients used to discover SNPs associated with change in PANSS-T (Discovery phase) and a second group to confirm the 100 most significant SNPs (Confirmatory phase). 2) A one-step approach using the Last Observation Carried Forward (LOCF) PANSS-T data of all iloperidone-treated patients. For each SNP, the most parsimonious genetic model (e.g., homozygous for one allele v. all other genotypes [i.e., AA v. AB and BB], heterozygous v. homozygous [i.e., AB v. AA and BB]) was established with respect to iloperidone efficacy using a one-way analysis of variance (ANOVA). 3) A Mixed-effects Model Repeated Measures (MMRM) analysis was subsequently conducted using the best genetic model of each SNP in the MMRM model. MMRM analyses were also conducted with the PANSS subscales PANSS-P, PANSS-N, and PANSS-GP.
The SNPs with a statistically significant association in all 3 analyses of PANSS-T, as well as the best of each analysis are considered significant findings and are listed below in Table 3.
A logistic regression is conducted based on binary cutoffs at PANSS-T≥30 and on the top ends of the distribution logistic model, splitting the data set into two groups: robust responders (i.e., responders having PANSS_T change≥30) and weak responders (i.e., responders having PANSS-T change<20). A significant GRM8 signal is observed in allelic tests conducted, that is, linear association is observed with PANSS-T day 28, logistic model with tot change>=30 vs weak (<20) and logistic association with high and low PANSS-T.

COc1cc(C(C)=O)ccc1OCCCN1CCC(c2noc3cc(F)ccc23)CC1 [iloperidone, 1-[4-[3-[4-(6-fluoro-1,2-benzisoxazol-3-yl)-1-piperidinyl]propoxy]-3-methoxyphenyl]ethanone]
Genotype associated with lower treatment effect (GRIP1 rs11176436): nonTT | Genotype associated with lower treatment effect (GRM8 rs2299503): nonAA | Genotype associated with lower treatment effect (GRM8 rs11763603): nonCC | Genotype associated with lower treatment effect (GRM8 rs13222700): nonTT | Genotype associated with lower treatment effect (NRXN3 rs17109739): nonCC | Genotype associated with lower treatment effect (NTRK2 rs7049108): nonGG | Genotype associated with lower treatment effect (SHANK2 rs579298): nonTT | iloperidone treatment effect as measured by PANSS-T by rs13222700 genotype (TT (homozygous minor allele) vs GT or GG, iloperidone 12 mg bid, PANSS-T day 28, FIG. 1): significantly higher treatment effect | iloperidone treatment effect as measured by PANSS-T change by rs13222700 genotype (TT vs GT or GG, iloperidone 12 mg bid, FIG. 3): significantly larger change in PANSS-T score | P of association of GRM8 variant rs13222700 with iloperidone efficacy (top locus of association analyses, chromosome 7): < 1×10^−5
